Patent US11497738B2, “Di-substituted pyrazole compounds for the treatment of diseases” (FGH BIOTECH, INC., priority 2016, dated 2022)

Tested on: SCD1 expression
Assay: Inhibition assay: qPCR of SCD1 expression in HepG2 cells (Biological Example 1)
Format: cell-based
Settings: Homo sapiens, 24 hours; for inhibition at 10 µM: read-out: Inhibition Percentage (%) 10 μM (SCD1 expression); for inhibition at 1 µM: read-out: Inhibition Percentage (%) 1 μM (SCD1 expression)
Experimental: HepG2 cells were grown in Dulbecco's Modified Eagle Medium (DMEM) containing 5% FBS and antibiotic-antimycotic in a humidified incubator at 37° C. with 5% CO2. All three components were purchased from ThermoFisher Scientific (Catalog numbers are 11995073, 26140079, and 15240062, respectively). Treatments were done in duplicates for each dose of each compound. For control and treated each treatment, 400,000 HepG2 cells were seeded onto 1 well of 24-well plate. After one day in culture, cells were treated with the test compound (1 μM and/or 10 μM, as indicated below in Table 1) for 24 hours in DMEM with 5% FBS. Compounds were diluted using DMSO from 20 mM stocks. Total RNAs were extracted using RNA extraction kit (Cat #: 45001163, Fisher Scientific) or Trizol. If Trizol was used, RNAs were treated with DNase I (cat #: 18068015, ThermoFisher Scientific) before qPCR. RNA concentrations were measured on a Nanodrop. One-step qPCR were performed using SYBR Green One Step qPCR Kit (Cat #: B25002, Biotool). 10 ng RNA was used in each 10-ul reaction. Triplicate reactions were done for each RNA sample. qPCR was performed on an ABI StepOnePlus using the program: Holding stage step 1, 50° C. 3 min, step 2, 95° C. 5 min; Cycling stage (40 cycles) step 1, 95° C. 10 sec, step 2, 60° C. 30 sec. Primer sequence was as follows: SCD1, 5′-[…]-3′/5′-[…]-3′.
All data was measured in HepG2 cells. % inhibition data of SCD1 expression are provided in Table 1. % inhibition at 10 μM is provided as follows: A≥75%; 75%>B≥50%; 50%>C≥10%. % inhibition at 1 μM is provided as follows: A1≥30%; 30%>B1≥2%. NI means no inhibition in the assay at the indicated concentration of compound tested. NT means not tested.

CCCc1cc(-n2cc(-c3ccc(NS(=O)(=O)C(F)(F)F)cc3Cl)cn2)ccn1 [Example 11, N-(3-chloro-4-(1-(2-propylpyridin-4-yl)-1H-pyrazol-4-yl)phenyl)-1,1,1-trifluoromethanesulfonamide]
inhibition at 10 µM: 10 to 50%

CCCc1cc(-n2cc(-c3ccc(NC(C)C)nc3)cn2)ccn1 [Example 7, N-isopropyl-5-(1-(2-propylpyridin-4-yl)-1H-pyrazol-4-yl)pyridin-2-amine]
inhibition at 10 µM: > 75%

CCCn1cc(-n2cc(-c3ccc(NC(C)C)nc3)cn2)ccc1=O [Example 44, 5-(4-(6-(isopropylamino)pyridin-3-yl)-1H-pyrazol-1-yl)-1-propylpyridin-2(1H)-one]
inhibition at 1 µM: 2 to 30%
inhibition at 10 µM: > 75%

CCCc1cc(-n2cc(-c3ccc(NCC(C)C)cc3)cn2)ccn1 [Example 3, N-isobutyl-4-(1-(2-propylpyridin-4-yl)-1H-pyrazol-4-yl)aniline]
inhibition at 10 µM: > 75%

CCCc1cccc(-n2cc(-c3ccc(NS(C)(=O)=O)cc3)cn2)c1 [Example 47, N-(4-(1-(3-propylphenyl)-1H-pyrazol-4-yl)phenyl)methanesulfonamide]
inhibition at 10 µM: 10 to 50%

CCCc1cc(-n2cc(-c3ccc(NCC4CC4)cn3)cn2)ccn1 [Example 16, N-(cyclopropylmethyl)-6-(1-(2-propylpyridin-4-yl)-1H-pyrazol-4-yl)pyridin-3-amine]
inhibition at 1 µM: 2 to 30%
inhibition at 10 µM: > 75%

CCCc1cc(-n2nc(C)c(-c3ccc(NC(C)C)nc3)c2C)ccn1 [Example 36, 5-(3,5-dimethyl-1-(2-propylpyridin-4-yl)-1H-pyrazol-4-yl)-N-isopropylpyridin-2-amine]
inhibition at 10 µM: 50 to 75%

CCCc1cc(-n2cc(-c3ccc(NS(C)(=O)=O)cc3Cl)cn2)ccn1 [Example 9, N-(3-chloro-4-(1-(2-propylpyridin-4-yl)-1H-pyrazol-4-yl)phenyl)methanesulfonamide]
inhibition at 1 µM: ≥ 30%
inhibition at 10 µM: > 75%

CCCc1cc(-n2cc(-c3ccc(NS(=O)(=O)C4CC4)cn3)cn2)ccn1 [Example 18, N-(6-(1-(2-propylpyridin-4-yl)-1H-pyrazol-4-yl)pyridin-3-yl)cyclopropanesulfonamide]
inhibition at 10 µM: > 75%

CCCc1cc(-n2cc(-c3ccc(NS(C)(=O)=O)cn3)cn2)ccn1 [Example 20, N-(6-(1-(2-propylpyridin-4-yl)-1H-pyrazol-4-yl)pyridin-3-yl)methanesulfonamide]
inhibition at 10 µM: 10 to 50%

CCCc1cc(-n2cc(-c3ccc(NC4CCC4)nc3)c(C)n2)ccn1 [Example 57, N-cyclobutyl-5-(3-methyl-1-(2-propylpyridin-4-yl)-1H-pyrazol-4-yl)pyridin-2-amine]
inhibition at 1 µM: 2 to 30%
inhibition at 10 µM: > 75%

CCCc1cc(-n2cc(-c3ccc(NC4CCCC4)cn3)cn2)ccn1 [Example 23, N-cyclopentyl-6-(1-(2-propylpyridin-4-yl)-1H-pyrazol-4-yl)pyridin-3-amine]
inhibition at 1 µM: 2 to 30%
inhibition at 10 µM: > 75%
